Laboratory results as given in ChEMBL document CHEMBL1152085, “Novel 3-deoxy-3-descladinosyl-6-O-methyl erythromycin a analogues. Synthesis and in vitro activity” (1997).
Converted amounts (≈) assume the structure as drawn.

Tests used:
Type in all cases: functional
Staphylococcus aureus [1] = assay: Tested in vitro for minimum inhibitory concentration to produce antibacterial activity against Staphylococcus aureus NCTC-10649M in presence of erythromycin A
Streptococcus pyogenes [2] = assay: Tested in vitro for minimum inhibitory concentration to produce antibacterial activity against Streptococcus pyogenes PIU 2548 in presence of erythromycin A
Streptococcus equinus [3] = assay: Tested in vitro for minimum inhibitory concentration to produce antibacterial activity against Streptococcus bovis A-5169
Staphylococcus aureus [4] = assay: Tested in vitro for minimum inhibitory concentration to produce antibacterial activity against Staphylococcus aureus A-5278
Streptococcus pyogenes [5] = assay: Tested in vitro for minimum inhibitory concentration to produce antibacterial activity against Streptococcus pyogenes PIU 2548
Streptococcus pyogenes [6] = assay: Tested in vitro for minimum inhibitory concentration to produce antibacterial activity against Streptococcus pyogenes 930 in presence of erythromycin A
Staphylococcus aureus [7] = assay: Tested in vitro for minimum inhibitory concentration to produce antibacterial activity against Staphylococcus aureus NCTC-10649M
Escherichia coli [8] = assay: Tested in vitro for minimum inhibitory concentration to produce antibacterial activity against Escherichia coli JUHL
Enterococcus faecium [9] = assay: Tested in vitro for minimum inhibitory concentration to produce antibacterial activity against Enterococcus faecium ATCC 8043
Staphylococcus aureus [10] = assay: Tested in vitro for minimum inhibitory concentration to produce antibacterial activity against Staphylococcus aureus ATCC 6538P
Staphylococcus aureus [11] = assay: Tested in vitro for minimum inhibitory concentration to produce antibacterial activity against Staphylococcus aureus A-5278 in presence of erythromycin A
Staphylococcus aureus [12] = assay: Tested in vitro for minimum inhibitory concentration to produce antibacterial activity against Staphylococcus aureus CMX 642A in presence of erythromycin A
Staphylococcus aureus [13] = assay: Tested in vitro for minimum inhibitory concentration to produce antibacterial activity against Staphylococcus aureus ATCC 6538P in presence of erythromycin A
Streptococcus pyogenes [14] = assay: Tested in vitro for minimum inhibitory concentration to produce antibacterial activity against Streptococcus pyogenes 930
Staphylococcus aureus [15] = assay: Tested in vitro for minimum inhibitory concentration to produce antibacterial activity against Staphylococcus aureus 1775
Staphylococcus aureus [16] = assay: Tested in vitro for minimum inhibitory concentration to produce antibacterial activity against Staphylococcus aureus A5177
Streptococcus equinus [17] = assay: Tested in vitro for minimum inhibitory concentration to produce antibacterial activity against Streptococcus bovis A-5169 in presence of erythromycin A
[18] = test system: Staphylococcus epidermidis; assay: Tested in vitro for minimum inhibitory concentration to produce antibacterial activity against Staphylococcus epidermidis 3519 in presence of erythromycin A
Staphylococcus aureus [19] = assay: Tested in vitro for minimum inhibitory concentration to produce antibacterial activity against Staphylococcus aureus CMX 553 in presence of erythromycin A
Staphylococcus aureus [20] = assay: Tested in vitro for minimum inhibitory concentration to produce antibacterial activity against Staphylococcus aureus CMX 642A
Staphylococcus aureus [21] = assay: Tested in vitro for minimum inhibitory concentration to produce antibacterial activity against Staphylococcus aureus 1775 in presence of erythromycin A
Enterococcus faecium [22] = assay: Tested in vitro for minimum inhibitory concentration to produce antibacterial activity against Enterococcus faecium ATCC 8043 in presence of erythromycin A
Streptococcus pyogenes [23] = assay: Tested in vitro for minimum inhibitory concentration to produce antibacterial activity against Streptococcus pyogenes EES61
Staphylococcus aureus [24] = assay: Tested in vitro for minimum inhibitory concentration to produce antibacterial activity against Staphylococcus aureus A5177 in presence of erythromycin A
[25] = test system: Staphylococcus epidermidis; assay: Tested in vitro for minimum inhibitory concentration to produce antibacterial activity against Staphylococcus epidermidis 3519
Streptococcus agalactiae [26] = assay: Tested in vitro for minimum inhibitory concentration to produce antibacterial activity against Streptococcus agalactiae CMX 508
Escherichia coli [27] = assay: Tested in vitro for minimum inhibitory concentration to produce antibacterial activity against Escherichia coli JUHL in presence of erythromycin A
Escherichia coli [28] = assay: Tested in vitro for minimum inhibitory concentration to produce antibacterial activity against Escherichia coli SS in presence of erythromycin A
Streptococcus pyogenes [29] = assay: Tested in vitro for minimum inhibitory concentration to produce antibacterial activity against Streptococcus pyogenes EES61 in presence of erythromycin A
Staphylococcus aureus [30] = assay: Tested in vitro for minimum inhibitory concentration to produce antibacterial activity against Staphylococcus aureus CMX 553
Escherichia coli [31] = assay: Tested in vitro for minimum inhibitory concentration to produce antibacterial activity against Escherichia coli SS
Streptococcus agalactiae [32] = assay: Tested in vitro for minimum inhibitory concentration to produce antibacterial activity against Streptococcus agalactiae CMX 508 in presence of erythromycin A

Structure (SMILES) | MIC (Staphylococcus aureus [1]) [µg/mL] | MIC (Streptococcus pyogenes [2]) [µg/mL] | MIC (Streptococcus equinus [3]) [µg/mL] | MIC (Staphylococcus aureus [4]) [µg/mL] | MIC (Streptococcus pyogenes [5]) [µg/mL] | MIC (Streptococcus pyogenes [6]) [µg/mL] | MIC (Staphylococcus aureus [7]) [µg/mL] | MIC (Escherichia coli [8]) [µg/mL] | MIC (Enterococcus faecium [9]) [µg/mL] | MIC (Staphylococcus aureus [10]) [µg/mL] | MIC (Staphylococcus aureus [11]) [µg/mL] | MIC (Staphylococcus aureus [12]) [µg/mL] | MIC (Staphylococcus aureus [13]) [µg/mL] | MIC (Streptococcus pyogenes [14]) [µg/mL] | MIC (Staphylococcus aureus [15]) [µg/mL] | MIC (Staphylococcus aureus [16]) [µg/mL] | MIC (Streptococcus equinus [17]) [µg/mL] | MIC [18] [µg/mL] | MIC (Staphylococcus aureus [19]) [µg/mL] | MIC (Staphylococcus aureus [20]) [µg/mL] | further results
CC[C@H]1OC(=O)[C@H](C)[C@@H](OC(=S)SC)[C@H](C)[C@@H](O[C@@H]2O[C@H](C)C[C@H](N(C)C)[C@H]2O)[C@](C)(OC)C[C@@H](C)C(=O)[C@H](C)[C@@H](O)[C@]1(C)O | 0.2 | 6.2 | 0.39 (≈ 0.574 µM) | > 100 | 1.56 (≈ 2.29 µM) | > 100 | 12.5 (≈ 18.4 µM) | > 100 | 6.2 (≈ 9.12 µM) | 25 (≈ 36.8 µM) | > 100 | 0.2 | 0.2 | 100 (≈ 147 µM) | > 100 | 25 (≈ 36.8 µM) | 0.02 | 0.2 | 0.2 | 25 (≈ 36.8 µM) | MIC (Staphylococcus aureus [21]): > 100 µg/mL; MIC (Enterococcus faecium [22]): 0.05 µg/mL; MIC (Streptococcus pyogenes [23]): 0.78 µg/mL (≈ 1.15 µM); MIC (Staphylococcus aureus [24]): 3.1 µg/mL; MIC [25]: 25 µg/mL (≈ 36.8 µM); MIC (Streptococcus agalactiae [26]): 0.78 µg/mL (≈ 1.15 µM); MIC (Escherichia coli [27]): 50 µg/mL; MIC (Escherichia coli [28]): 0.2 µg/mL; MIC (Streptococcus pyogenes [29]): 0.02 µg/mL; MIC (Staphylococcus aureus [30]): 25 µg/mL (≈ 36.8 µM); MIC (Escherichia coli [31]): 0.39 µg/mL (≈ 0.574 µM); MIC (Streptococcus agalactiae [32]): 0.02 µg/mL
CC[C@H]1OC(=O)[C@H](C)C(=O)[C@H](C)[C@@H](O[C@@H]2O[C@H](C)C[C@H](N(C)C)[C@H]2O)[C@](C)(OC)C[C@@H](C)C(=O)[C@H](C)[C@@H](O)[C@]1(C)O | 0.2 | 3.1 | 0.05 (≈ 0.0851 µM) | > 100 | 0.3 (≈ 0.51 µM) | > 100 | 0.1 (≈ 0.17 µM) | > 100 | 0.2 (≈ 0.34 µM) | 0.2 (≈ 0.34 µM) | > 100 | 0.2 | 0.2 | > 100 | > 100 | 0.2 (≈ 0.34 µM) | 0.02 | 0.2 | 0.2 | 0.39 (≈ 0.664 µM) | MIC (Staphylococcus aureus [21]): > 100 µg/mL; MIC (Enterococcus faecium [22]): 0.05 µg/mL; MIC (Streptococcus pyogenes [23]): 0.1 µg/mL (≈ 0.17 µM); MIC (Staphylococcus aureus [24]): 1.56 µg/mL; MIC [25]: 0.39 µg/mL (≈ 0.664 µM); MIC (Streptococcus agalactiae [26]): 0.2 µg/mL (≈ 0.34 µM); MIC (Escherichia coli [27]): 50 µg/mL; MIC (Escherichia coli [28]): 0.2 µg/mL; MIC (Streptococcus pyogenes [29]): 0.05 µg/mL; MIC (Staphylococcus aureus [30]): 0.2 µg/mL (≈ 0.34 µM); MIC (Escherichia coli [31]): 0.39 µg/mL (≈ 0.664 µM); MIC (Streptococcus agalactiae [32]): 0.05 µg/mL
CCO/N=C1\[C@H](C)C[C@@](C)(OC)[C@H](O[C@@H]2O[C@H](C)C[C@H](N(C)C)[C@H]2O)[C@@H](C)C[C@@H](C)C(=O)O[C@H](CC)[C@@](C)(O)[C@H](O)[C@H]1C | 0.39 | 3.1 | 3.1 (≈ 5.03 µM) | > 100 | 25 (≈ 40.5 µM) | > 100 | 12.5 (≈ 20.3 µM) | > 100 | 25 (≈ 40.5 µM) | 25 (≈ 40.5 µM) | > 100 | 0.39 | 0.39 | > 100 | > 100 | 25 (≈ 40.5 µM) | 0.01 | 0.39 | 0.39 | 50 (≈ 81.1 µM) | MIC (Staphylococcus aureus [21]): > 100 µg/mL; MIC (Enterococcus faecium [22]): 0.05 µg/mL; MIC (Streptococcus pyogenes [23]): 3.1 µg/mL (≈ 5.03 µM); MIC (Staphylococcus aureus [24]): 3.1 µg/mL; MIC [25]: 25 µg/mL (≈ 40.5 µM); MIC (Streptococcus agalactiae [26]): 3.1 µg/mL (≈ 5.03 µM); MIC (Escherichia coli [27]): 25 µg/mL; MIC (Escherichia coli [28]): 0.2 µg/mL; MIC (Streptococcus pyogenes [29]): 0.02 µg/mL; MIC (Staphylococcus aureus [30]): 50 µg/mL (≈ 81.1 µM); MIC (Escherichia coli [31]): 3.1 µg/mL (≈ 5.03 µM); MIC (Streptococcus agalactiae [32]): 0.1 µg/mL
CC[C@H]1OC(=O)[C@H](C)C[C@H](C)[C@@H](O[C@@H]2O[C@H](C)C[C@H](N(C)C)[C@H]2O)[C@](C)(OC)C[C@@H](C)/C(=N\O)[C@H](C)[C@@H](O)[C@]1(C)O | 0.2 | 6.2 | 0.78 (≈ 1.32 µM) | > 100 | 1.56 (≈ 2.65 µM) | > 100 | 12.5 (≈ 21.2 µM) | > 100 | 3.1 (≈ 5.27 µM) | 12.5 (≈ 21.2 µM) | > 100 | 0.2 | 0.2 | > 100 | > 100 | 25 (≈ 42.5 µM) | 0.05 | 0.2 | 0.2 | 12.5 (≈ 21.2 µM) | MIC (Staphylococcus aureus [21]): > 100 µg/mL; MIC (Enterococcus faecium [22]): 0.05 µg/mL; MIC (Streptococcus pyogenes [23]): 0.78 µg/mL (≈ 1.32 µM); MIC (Staphylococcus aureus [24]): 3.1 µg/mL; MIC [25]: 12.5 µg/mL (≈ 21.2 µM); MIC (Streptococcus agalactiae [26]): 0.78 µg/mL (≈ 1.32 µM); MIC (Escherichia coli [27]): 50 µg/mL; MIC (Escherichia coli [28]): 0.2 µg/mL; MIC (Streptococcus pyogenes [29]): 0.01 µg/mL; MIC (Staphylococcus aureus [30]): 12.5 µg/mL (≈ 21.2 µM); MIC (Escherichia coli [31]): 0.78 µg/mL (≈ 1.32 µM); MIC (Streptococcus agalactiae [32]): 0.01 µg/mL
